Test results as given in the supplement of paper PMC4862054.

Columns and labels:
Conditions in all cases: incubation time: 72 h
[1] = tested on: BT-549; assay: normalised viability (% of control), CellTiter-Blue; higher = more viable cells (100 = DMSO, 0 = benzethonium chloride kill control)
Protocol: (§1)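 DSRT, CellTiter-Blue viability, 72 h incubation. Signal is normalised to DMSO and benzethonium chloride controls. Value is the normalised response at dose 1.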

[2] = tested on: HCC1599; assay: as above
Protocol: as §1

[3] = tested on: HCC1143; assay: as above
Protocol: as §1

[4] = tested on: Hs578T; assay: as above
Protocol: as §1

[5] = tested on: BT-474; assay: as above
Protocol: as §1

[6] = tested on: MFM-223; assay: as above
Protocol: as §1

[7] = tested on: MDA-MB-468; assay: as above
Protocol: as §1

[8] = tested on: CAL-120; assay: as above
Protocol: as §1

[9] = tested on: HCC1937; assay: as above
Protocol: as §1

[10] = tested on: MDA-MB-453; assay: as above
Protocol: as §1

[11] = tested on: CAL-51; assay: as above
Protocol: as §1

[12] = tested on: SK-BR-3; assay: as above
Protocol: as §1

[13] = tested on: DU-4475; assay: as above
Protocol: as §1

[14] = tested on: MDA-MB-231; assay: as above
Protocol: as §1

[15] = tested on: MDA-MB-436; assay: as above
Protocol: as §1

[16] = tested on: CAL-148; assay: as above
Protocol: as §1

[17] = tested on: HDQ-P1; assay: as above
Protocol: as §1

[18] = tested on: CAL-85-1; assay: as above
Protocol: as §1

[19] = tested on: MCF-10A; assay: normalised response (% of control), CellTiter-Glo; higher = more viable cells (100 = DMSO, 0 = benzethonium chloride kill control)
How it was run: (§2)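 After 72 h with compound in 384-well plates, breast cancer cell lines seeded as 20 µl suspension were read for CellTox Green fluorescence at 485/520 nm. CellTiter-Glo luminescence was then read after 10 min at room temperature. Compound was present at 5 concentrations in 10-fold steps over a 10,000-fold range set per compound, and plates were normalised to 0.1 % DMSO (100) and a positive kill control (0). Values are normalised signals, each at a single concentration.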

[20] = tested on: BT-549; assay: as above
How it was run: as §2

[21] = tested on: HCC1599; assay: as above
How it was run: as §2

[22] = tested on: HCC1143; assay: as above
How it was run: as §2

[23] = tested on: Hs578T; assay: as above
How it was run: as §2

[24] = tested on: BT-474; assay: as above
How it was run: as §2

[25] = tested on: MFM-223; assay: as above
How it was run: as §2

[26] = tested on: MDA-MB-468; assay: as above
How it was run: as §2

[27] = tested on: CAL-120; assay: as above
How it was run: as §2

[28] = tested on: HCC1937; assay: as above
How it was run: as §2

[29] = tested on: MDA-MB-453; assay: as above
How it was run: as §2

[30] = tested on: CAL-51; assay: as above
How it was run: as §2

[31] = tested on: SK-BR-3; assay: as above
How it was run: as §2

[32] = tested on: DU-4475; assay: as above
How it was run: as §2

[33] = tested on: MDA-MB-231; assay: as above
How it was run: as §2

[34] = tested on: MDA-MB-436; assay: as above
How it was run: as §2

[35] = tested on: CAL-148; assay: as above
How it was run: as §2

[36] = tested on: HDQ-P1; assay: as above
How it was run: as §2

[37] = tested on: CAL-85-1; assay: as above
How it was run: as §2

Structure (SMILES)	normalised viability [1]	normalised viability [2]	normalised viability [3]	normalised viability [4]	normalised viability [5]	normalised viability [6]	normalised viability [7]	normalised viability [8]	normalised viability [9]	normalised viability [10]	normalised viability [11]	normalised viability [12]	normalised viability [13]	normalised viability [14]	normalised viability [15]	normalised viability [16]	normalised viability [17]	normalised viability [18]	normalised response [19]	normalised response [20]	normalised response [21]	normalised response [22]	normalised response [23]	normalised response [24]	normalised response [25]	normalised response [26]	normalised response [27]	normalised response [28]	normalised response [29]	normalised response [30]	normalised response [31]	normalised response [32]	normalised response [33]	normalised response [34]	normalised response [35]	normalised response [36]	normalised response [37]
C=CCN(/C=C1/C(=O)O[C@H](COC)[C@@]2(C)C1=C(O)C(=O)C1=C2[C@H](OC(C)=O)C[C@]2(C)C(=O)CC[C@@H]12)CC=C [PX-866] (1 nM)	105%	104%	99.8%	98.6%	102%	87.4%	96.6%	97.7%	83.9%	101%	112%	96.3%	118%	97.6%	94.8%	114%	107%	97%	–	–	–	–	–	–	–	–	–	–	–	–	–	–	–	–	–	–	–
Cc1cc(Nc2nc(N[C@@H](C)c3ncc(F)cn3)ncc2Cl)[nH]n1 [AZD1480] (0.1 nM)	109%	97%	98.1%	116%	114%	92.3%	111%	93.4%	122%	102%	118%	105%	115%	93.5%	114%	112%	124%	91.2%	102%	104%	78.9%	96.7%	96.8%	98.7%	94.9%	94.8%	100%	102%	101%	117%	98.7%	97.2%	98.3%	104%	95.5%	104%	102%
C=CCn1c(=O)c2cnc(Nc3ccc(N4CCN(C)CC4)cc3)nc2n1-c1cccc(C(C)(C)O)n1 [MK1775] (1 nM)	107%	103%	104%	106%	90.5%	94.8%	105%	83.5%	106%	104%	89%	92.9%	86.6%	95.2%	97.9%	99.8%	84.2%	78.4%	80.6%	101%	105%	91.4%	95.8%	94.4%	85.6%	95.2%	92.9%	97.9%	90.2%	114%	78.3%	96.6%	90.5%	85.8%	87.4%	87.7%	101%
COc1c2occc2cc2ccc(=O)oc12 [Methoxsalen] (1 nM)	97.6%	104%	101%	103%	79.9%	93.1%	109%	107%	93.8%	103%	100%	104%	96.2%	105%	116%	112%	106%	92.3%	–	–	–	–	–	–	–	–	–	–	–	–	–	–	–	–	–	–	–
CC[C@H](CO)Nc1nc(NCc2ccccc2)c2ncn(C(C)C)c2n1 [Roscovitine] (1 nM)	105%	101%	95.5%	96.3%	91%	96.5%	93.7%	83.7%	81.3%	104%	101%	92.9%	103%	110%	114%	87.1%	83.1%	82.8%	–	–	–	–	–	–	–	–	–	–	–	–	–	–	–	–	–	–	–
CCN(CC)CCCC(C)Nc1ccnc2cc(Cl)ccc12 (stereo unspecified) [Chloroquine] (0.099 nM)	107%	96.9%	99.2%	101%	100%	102%	108%	85.9%	89.7%	107%	90%	91.9%	111%	112%	111%	97.1%	112%	87.6%	–	–	–	–	–	–	–	–	–	–	–	–	–	–	–	–	–	–	–
